Target: LSD-1 enzyme (Homo sapiens (Human), UniProt O60341)
Assay: LANCE LSD1/KDM1A demethylase assay (LSD1 histone demethylase biochemical assay)
Conditions: 1 nM LSD-1 enzyme, 1 hour preincubation at 25° C., Biotin-labeled Histone H3 peptide substrate
Experimental: Example A: LSD1 Histone Demethylase Biochemical Assay
LANCE LSD1/KDM1A demethylase assay—10 μL of 1 nM LSD-1 enzyme (ENZO BML-SE544-0050) in the assay buffer (50 mM Tris, pH 7.5, 0.01% Tween-20, 25 mM NaCl, 5 mM DTT) were preincubated for 1 hour at 25° C. with 0.8 μL compound/DMSO dotted in black 384 well polystyrene plates. […] Reactions were stopped by addition of 10 μL 1×LANCE Detection Buffer (PerkinElmer CR97-100) supplemented with 1.5 nM Eu-anti-unmodified H3K4 Antibody (PerkinElmer TRF0404), and 225 nM LANCE Ultra Streptavidin (PerkinElmer TRF102) along with 0.9 mM Tranylcypromine-HCl (Millipore 616431). After stopping the reactions plates were incubated for 30 minutes and read on a PHERAstar FS plate reader (BMG Labtech).

SMILES	IC50
C[C@@H](O)CN1CCC[C@@H](COc2nc(-c3ccc(C#N)cc3)c(-c3ccc4c(c3)oc(=O)n4C)c3nccn23)C1 [Example 133, 4-[5-({(3R)-1-[(2R)-2-hydroxypropyl]piperidin-3-yl}methoxy)-8-(3-methyl-2-oxo-2,3-dihydro-1,3-benzoxazol-6-yl)imidazo[1,2-c]pyrimidin-7-yl]benzonitrile]	50 to 500 nM
COCCN1CCC[C@@H](COc2nc(-c3ccc(C#N)cc3)c(-c3cnc4c(cnn4C)c3)c3nccn23)C1 [Example 41, 4-[5-{[(3R)-1-(2-methoxyethyl)piperidin-3-yl]methoxy}-8-(1-methyl-1H-pyrazolo[3,4-b]pyridin-5-yl)imidazo[1,2-c]pyrimidin-7-yl]benzonitrile]	≤ 50 nM
CN1CCC[C@@H](COc2nc(-c3ccc(C#N)cc3)c(-c3ccc4c(c3)oc(=O)n4C)c3nccn23)C1 [Example 7, 4-(8-(3-methyl-2-oxo-2,3-dihydro-1,3-benzoxazol-6-yl)-5-{[(3R)-1-methylpiperidin-3-yl]methoxy}imidazo[1,2-c]pyrimidin-7-yl)benzonitrile]	≤ 50 nM
Cn1c(=O)oc2cc(-c3c(-c4ccc(C#N)cc4)nc(OC[C@@H]4CCCN(CC(C)(C)O)C4)n4ccnc34)ccc21 [Example 135, 4-[5-{[(3R)-1-(2-hydroxy-2-methylpropyl)piperidin-3-yl]methoxy}-8-(3-methyl-2-oxo-2,3-dihydro-1,3-benzoxazol-6-yl)imidazo[1,2-c]pyrimidin-7-yl]benzonitrile]	50 to 500 nM
CN1CCC[C@@H](COc2nc(-c3ccc(C#N)cc3)c(-c3cnc4c(c3)CCCN4C)c3nccn23)C1 [Example 78, 4-[5-{[(3R)-1-methylpiperidin-3-yl]methoxy}-8-(8-methyl-5,6,7,8-tetrahydro-1,8-naphthyridin-3-yl)imidazo[1,2-c]pyrimidin-7-yl]benzonitrile]	≤ 50 nM
CN(C)C1CCN(c2nc(-c3ccc(C#N)cc3)c(-c3cnc4c(c3)oc(=O)n4C)c3nccn23)CC1 [Example 60, 4-[5-[4-(dimethylamino)piperidin-1-yl]-8-(3-methyl-2-oxo-2,3-dihydro[1,3]oxazolo[4,5-b]pyridin-6-yl)imidazo[1,2-c]pyrimidin-7-yl]benzonitrile]	≤ 50 nM
CN1CCC[C@@H](COc2nc(-c3ccc(C#N)cc3)c(-c3ccc4c(c3)N(C)C(=O)CC4)c3nccn23)C1 [Example 79, 4-(8-(1-methyl-2-oxo-1,2,3,4-tetrahydroquinolin-7-yl)-5-{[(3R)-1-methylpiperidin-3-yl]methoxy}imidazo[1,2-c]pyrimidin-7-yl)benzonitrile]	50 to 500 nM
CN1CCC[C@@H](COc2nc(-c3ccc(C#N)cc3)c(-c3ccc(CN4CCOCC4)cc3)c3nccn23)C1 [Example 12, 4-{5-{[(3R)-1-methylpiperidin-3-yl]methoxy}-8-[4-(morpholin-4-ylmethyl)phenyl]imidazo[1,2-c]pyrimidin-7-yl}benzonitrile]	50 to 500 nM
CN1CCC[C@@H](COc2nc(-c3ccc(C#N)cc3)c(-c3ccc(N(C)C)nc3)c3nccn23)C1 [Example 4, 4-(8-[6-(dimethylamino)pyridin-3-yl]-5-{[(3R)-1-methylpiperidin-3-yl]methoxy}imidazo[1,2-c]pyrimidin-7-yl)benzonitrile]	≤ 50 nM
Cc1ccc(-c2c(-c3ccc(C#N)cc3)nc(N3CCC(N(C)C)CC3)n3ccnc23)cc1CO [Example 102, 4-{5-[4-(dimethylamino)piperidin-1-yl]-8-[3-(hydroxymethyl)-4-methylphenyl]imidazo[1,2-c]pyrimidin-7-yl}benzonitrile]	≤ 50 nM
CN1CCN(Cc2ccc(-c3c(-c4ccc(C#N)cc4)nc(OC[C@@H]4CCCN(C)C4)n4ccnc34)cc2)CC1 [Example 9, 4-(8-{4-[(4-methylpiperazin-1-yl)methyl]phenyl}-5-{[(3R)-1-methylpiperidin-3-yl]methoxy}imidazo[1,2-c]pyrimidin-7-yl)benzonitrile]	≤ 50 nM
COc1ncc(-c2c(-c3ccc(C#N)cc3)nc(OC[C@@H]3CCCN(C)C3)n3ccnc23)cc1C [Example 69, 4-(8-(6-methoxy-5-methylpyridin-3-yl)-5-{[(3R)-1-methylpiperidin-3-yl]methoxy}imidazo[1,2-c]pyrimidin-7-yl)benzonitrile]	≤ 50 nM
CN1CCN(C(=O)Cc2ccc(-c3c(-c4ccc(C#N)cc4)nc(OC[C@@H]4CCCN(C)C4)n4ccnc34)cc2)CC1 [Example 10, 4-(8-{4-[2-(4-methylpiperazin-1-yl)-2-oxoethyl]phenyl}-5-{[(3R)-1-methylpiperidin-3-yl]methoxy}imidazo[1,2-c]pyrimidin-7-yl)benzonitrile]	≤ 50 nM
COC(=O)N(C)Cc1ccc(-c2c(-c3ccc(C#N)cc3)nc(OC[C@@H]3CCCN(C)C3)n3ccnc23)cc1 [Example 87, methyl [4-(7-(4-cyanophenyl)-5-{[(3R)-1-methylpiperidin-3-yl]methoxy}imidazo[1,2-c]pyrimidin-8-yl)benzyl]methylcarbamate]	≤ 50 nM
CN1CC[C@@H](COc2nc(-c3ccc(C#N)cc3)c(-c3ccc4c(c3)CC(=O)N4C)c3nccn23)C1 [Example 23, 4-(8-(1-methyl-2-oxo-2,3-dihydro-1H-indol-5-yl)-5-{[(3R)-1-methylpyrrolidin-3-yl]methoxy}imidazo[1,2-c]pyrimidin-7-yl)benzonitrile]	50 to 500 nM
CN1CCC[C@@H](COc2nc(-c3ccc(C#N)cc3)c(-c3cnc4c(c3)CCN4C)c3nccn23)C1 [Example 77, 4-(8-(1-mcthyl-2.3-dihydro-1H-pyrrolo[2,3-b]pyridin-5-yl)-5-{[(3R)-1-methylpiperidin-3-yl]methoxy}imidazo[1,2-c]pyrimidin-7-yl)benzonitrile]	≤ 50 nM
CN1C(=O)CCc2ccc(-c3c(-c4ccc(C#N)cc4)nc(N4CCC(N(C)C)CC4)n4ccnc34)cc21 [Example 131, 4-[5-[4-(dimethylamino)piperidin-1-yl]-8-(1-methyl-2-oxo-1,2,3,4-tetrahydroquinolin-7-yl)imidazo[1,2-c]pyrimidin-7-yl]benzonitrile]	50 to 500 nM
CN1CCC[C@@H](COc2nc(-c3ccc(C#N)cc3)c(-c3ccc(CO)cc3)c3nccn23)C1 [Example 36, 4-(8-[4-(hydroxymethyl)phenyl]-5-{[(3R)-1-methylpiperidin-3-yl]methoxy}imidazo[1,2-c]pyrimidin-7-yl)benzonitrile]	≤ 50 nM
CN1CCC[C@@H](COc2nc(-c3ccc(C#N)cc3)c(-c3ccc(CCN4CCOCC4)cc3)c3nccn23)C1 [Example 11, 4-{5-{[(3R)-1-methylpiperidin-3-yl]methoxy}-8-[4-(2-morpholin-4-ylethyl)phenyl]imidazo[1,2-c]pyrimidin-7-yl}benzonitrile]	50 to 500 nM
CN(C)C1CCN(c2nc(-c3ccc(C#N)cc3)c(-c3ccc4nccnc4c3)c3nccn23)CC1 [Example 126, 4-{5-[4-(dimethylamino)piperidin-1-yl]-8-quinoxalin-6-ylimidazo[1,2-c]pyrimidin-7-yl}benzonitrile]	50 to 500 nM
CN1CCC[C@@H](COc2nc(-c3ccc(C#N)cc3)c(-c3ccc4c(c3)n(C)c(=O)n4C)c3nccn23)C1 [Example 44, 4-(8-(1,3-dimethyl-2-oxo-2,3-dihydro-1H-benzimidazol-5-yl)-5-{[(3R)-1-methylpiperidin-3-yl]methoxy}imidazo[1,2-c]pyrimidin-7-yl)benzonitrile]	50 to 500 nM
COc1ncc(-c2c(-c3ccc(C#N)cc3)nc(OC[C@@H]3CCCN(CCC#N)C3)n3ccnc23)cc1F [Example 81, 4-[5-{[(3R)-1-(2-cyanoethyl)piperidin-3-yl]methoxy}-8-(5-fluoro-6-methoxypyridin-3-yl)imidazo[1,2-c]pyrimidin-7-yl]benzonitrile]	50 to 500 nM
C[C@H](O)CN1CCC[C@@H](COc2nc(-c3ccc(C#N)cc3)c(-c3ccc4c(c3)oc(=O)n4C)c3nccn23)C1 [Example 134, 4-[5-({(3R)-1-[(2S)-2-hydroxypropyl]piperidin-3-yl}methoxy)-8-(3-methyl-2-oxo-2,3-dihydro-1,3-benzoxazol-6-yl)imidazo[1,2-c]pyrimidin-7-yl]benzonitrile]	≤ 50 nM
CN1CCC[C@@H](COc2nc(-c3ccc(C#N)cc3)c(-c3cnc4c(c3)oc(=O)n4C)c3nccn23)C1 [Example 61, 4-(8-(3-methyl-2-oxo-2,3-dihydro[1,3]oxazolo[4,5-b]pyridin-6-yl)-5-{[(3R)-1-methylpiperidin-3-yl]methoxy}imidazo[1,2-c]pyrimidin-7-yl)benzonitrile]	50 to 500 nM
CN1CCC[C@@H](COc2nc(-c3ccc(C#N)cc3)c(-c3ccc4c(c3)CC(C(=O)N(C)C)O4)c3nccn23)C1 (stereo partly drawn) [Example 20, 5-(7-(4-cyanophenyl)-5-{[(3R)-1-methylpiperidin-3-yl]methoxy}imidazo[1,2-c]pyrimidin-8-yl)-N,N-dimethyl-2,3-dihydro-1-benzofuran-2-carboxamide]	≤ 50 nM
CN1CCC[C@@H](COc2nc(-c3ccc(C#N)cc3)c(-c3ccc(CN(C)C(=O)N(C)C)cc3)c3nccn23)C1 [Example 86, N-[4-(7-(4-cyanophenyl)-5-{[(3R)-1-methylpiperidin-3-y1]methoxy}imidazo[1,2-c]pyrimidin-8-yl)benzyl]-N,N′,N′-trimethylurea]	≤ 50 nM
CN1CCC[C@@H](COc2nc(-c3ccc(C#N)cc3)c(-c3ccc4c(c3)ncn4C)c3nccn23)C1 [Example 17, 4-(8-(1-methyl-1H-benzimidazol-5-yl)-5-{[(3R)-1-methylpiperidin-3-yl]methoxy}imidazo[1,2-c]pyrimidin-7-yl)benzonitrile]	≤ 50 nM

Reference: patent US9944647B2 (Incyte Corporation, priority 2015, dated 2018)
